In patent US9995734B2, “Human T cell line assay for evaluating the immunologic identity of glatiramer acetate preparations” (Mylan Inc., priority 2013, dated 2018):

What was measured:
[1] = system: Donor 1 COP T-Cell Lines; assay: IFN-γ ELISA, Donor 1 COP T-cell lines; assay type: cell-based, human; conditions: for IFN-γ (ELISA), mean: 10 μg/mL, autologous B-LCL; for IFN-γ production in response to GA: 222-2D8, 222-2E1, 222-2B11, 222-2C3, 222-2B8, 222-2G12, 222-2F12
Method: Culture medium was removed from cultures prepared as for proliferation assay and utilized to measure cytokine production. In most cases culture medium was collected 18-24 hours after mixing T-cells, APC, and stimulating antigen. Cytokine production was measured by ELISA or bead assay. For measuring cytokine production, 100-150 μL culture medium (100 μL if culture was to be continued, otherwise 150 μL) was removed from each well. In some cases, the culture was continued 48 hours, for a total of 72 hours of culture, and the proliferative response measured.
IFN-γ concentration in culture supernatants was measured by a sandwich ELISA using two anti-IFN-γ monoclonal antibodies. Clone 2G1 was used for capture, and biotinylated antibody from clone B133.5 was used for detection (both from Endogen). Recombinant IFN-γ was used to construct a standard curve ranging from 1000 to 15 pg/mL.
Based on the increases in ATP level observed (i.e., a ratio of relative luminescence in wells with antigen to control wells without antigen of two or more), fifteen presumptive GA-specific T-cell lines in the original plate were moved to a 24-well plate at Day 26 and restimulated with 10 μg/mL Copaxone in the presence of autologous EBV-transformed B-LCL (5×10^5 per well, i.e., 2.5×10^5/mL). At Day 27 IL-2 was added. On Day 34, the fifteen presumptive lines were restimulated with 10 μg/mL GMA or 10 μg/mL COP in the presence of mitomycin-treated autologous B-LCL (4×10^4 per well; 2×10^5 per mL), or incubated with mitomycin-treated autologous B-LCL and no antigen. On Day 35 IL-2 was added to continued cultures. On Day 36 culture supernatant was collected from test cultures and IFN-γ production measured by ELISA (48 hours after restimulation). IFN-γ protein concentrations were determined using a TMB standard curve.

[2] = system: Donor 3 GMA Responsive T Cells; assay: Cytokine multiplex assay, Donor 3 GMA responsive T cells; assay type: cell-based, human; conditions: culture medium
Method: The concentration of multiple cytokines was measured simultaneously using FlowCytoMix™ kits (eBioscience, San Diego Calif.). These are fluorescent bead based assays consisting of beads conjugated to anti cytokine antibodies. Beads specific for each cytokine are distinguished by size and fluorescence at 670 run. Cytokine bound to each bead is detected using a phycoerythrin conjugated antibody so that the fluorescence at 585 nm reflects the concentration of cytokine in the sample. Two kits were utilized which measured different cytokine panels. The TH1/TH2 kit measures IFN-γ, IL-1β, IL-2, IL-4, IL-5, IL-6, IL-8, IL-10, IL-12p70, TNF-α (TNF) and TNF-β (LT). The TH1/TH2/TH9/TH17/TH22 kit measures […], IL-1β, IL-2, IL-4, IL-5, IL-6, IL-9, IL-10, IL-12p70, IL-13, IL-17, IL-22, and TNF-α (TNF). Both kits were used following the manufacturer's instructions.

[3] = 222-1G8, 48 hours, T-cells + B-LCL >1000
[4] = 222-1H12, 48 hours, T-cells + B-LCL >1000
[5] = 222-2B8, 48 hours, T-cells + B-LCL 599
[6] = 222-2B11, 48 hours, T-cells + B-LCL 354
[7] = 222-2C3, 48 hours, T-cells + B-LCL 538
[8] = 222-2D8, 48 hours after restimulation, T-cells + B-LCL 270
[9] = 222-2E1, 48 hours, T-cells + B-LCL 457
[10] = 222-2F12, 48 hours, T-cells + B-LCL 295
[11] = 222-2G12, 48 hours, T-cells + B-LCL 515

In the case of glatiramer acetate [COP], the “IFN-γ (ELISA), mean” value ([1]; 222-1C5, 48 hours, T-cells + B-LCL 821, listed as Copaxone) is reported as 700 pg/mL, the “IFN-γ (ELISA), mean” value ([1]; 222-1F8, 48 hours, T-cells + B-LCL 120, listed as Copaxone) is reported as 156 pg/mL and the “IFN-γ (ELISA), mean” value [1, 3] is reported as >1000 pg/mL. The “IFN-γ (ELISA), mean” value [1, 4] was >1000 pg/mL, the “IFN-γ (ELISA), mean” value [1, 5] was >1000 pg/mL and the “IFN-γ (ELISA), mean” value [1, 6] was >1000 pg/mL. For the same substance, the “IFN-γ (ELISA), mean” value ([1]; 222-2C1, 48 hours, T-cells + B-LCL 369, listed as Copaxone) was 417 pg/mL, the “IFN-γ (ELISA), mean” value [1, 7] was >1000 pg/mL and the “IFN-γ (ELISA), mean” value ([1]; 222-2C5, 48 hours, T-cells + B-LCL 325, listed as Copaxone) was 273 pg/mL. For the same substance, the “IFN-γ (ELISA), mean” value ([1]; 222-2D2, 48 hours, T-cells + B-LCL 68, listed as Copaxone) was 133 pg/mL, the “IFN-γ production in response to GA” value [1] was “reacted” and the “IFN-γ (ELISA), mean” value [1, 8] was >1000 pg/mL. The “IFN-γ (ELISA), mean” value [1, 9] was >1000 pg/mL, the “IFN-γ (ELISA), mean” value [1, 10] was >1000 pg/mL and the “IFN-γ (ELISA), mean” value ([1]; 222-2G4, 48 hours, T-cells + B-LCL 280, listed as Copaxone) was 416 pg/mL. For the same substance, the “IFN-γ (ELISA), mean” value [1, 11] was >1000 pg/mL, the IFN-γ ([2]; T-cell line 165-B5G) was 190 pg/mL and the IL-4 ([2]; T-cell line 165-B5G) was 17 pg/mL. For the same substance, the IL-5 ([2]; T-cell line 165-B5G) was 374 pg/mL, the IL-13 ([2]; T-cell line 165-B5G) was 2927 pg/mL and the IL-22 ([2]; T-cell line 165-B5G) was 106 pg/mL. For the same substance, the IFN-γ ([2]; T-cell line 165-D8G) was 115 pg/mL, the IL-4 ([2]; T-cell line 165-D8G) was 14 pg/mL and the IL-5 ([2]; T-cell line 165-D8G) was 309 pg/mL. The IL-13 ([2]; T-cell line 165-D8G) was 3121 pg/mL, the IL-22 ([2]; T-cell line 165-D8G) was 365 pg/mL and the IFN-γ ([2]; T-cell line 165-E9G) was 638 pg/mL. The IL-4 ([2]; T-cell line 165-E9G) was 12 pg/mL, the IL-5 ([2]; T-cell line 165-E9G) was 208 pg/mL and the IL-13 ([2]; T-cell line 165-E9G) was 1232 pg/mL. The IL-22 ([2]; T-cell line 165-E9G) was 192 pg/mL, the IFN-γ ([2]; T-cell line 165-F8G) was 771 pg/mL and the IL-4 ([2]; T-cell line 165-F8G) was 0 pg/mL. For the same substance, the IL-5 ([2]; T-cell line 165-F8G) was 297 pg/mL, the IL-13 ([2]; T-cell line 165-F8G) was 1017 pg/mL and the IL-22 ([2]; T-cell line 165-F8G) was 198 pg/mL. For the same substance, the IFN-γ ([2]; T-cell line 165-F10G) was 1165 pg/mL, the IL-4 ([2]; T-cell line 165-F10G) was 122 pg/mL and the IL-5 ([2]; T-cell line 165-F10G) was 2586 pg/mL. For the same substance, the IL-13 ([2]; T-cell line 165-F10G) was 11285 pg/mL, the IL-22 ([2]; T-cell line 165-F10G) was 686 pg/mL and the IFN-γ ([2]; T-cell line 165-H11G) was 724 pg/mL. It also gave an IL-4 ([2]; T-cell line 165-H11G) of 9 pg/mL, an IL-5 ([2]; T-cell line 165-H11G) of 321 pg/mL and an IL-13 ([2]; T-cell line 165-H11G) of 1095 pg/mL. It also gave an IL-22 ([2]; T-cell line 165-H11G) of 190 pg/mL.

For glatiramer acetate [GMA], the “IFN-γ (ELISA), mean” value ([1]; 222-1C5, 48 hours, T-cells + B-LCL 821) was 776 pg/mL, the “IFN-γ (ELISA), mean” value ([1]; 222-1F8, 48 hours, T-cells + B-LCL 120) was 169 pg/mL and the “IFN-γ (ELISA), mean” value [1, 3] was >1000 pg/mL. The “IFN-γ (ELISA), mean” value [1, 4] was >1000 pg/mL, the “IFN-γ (ELISA), mean” value [1, 5] was >1000 pg/mL and the “IFN-γ (ELISA), mean” value [1, 6] was >1000 pg/mL. The “IFN-γ (ELISA), mean” value ([1]; 222-2C1, 48 hours, T-cells + B-LCL 369) was 392 pg/mL, the “IFN-γ (ELISA), mean” value [1, 7] was >1000 pg/mL and the “IFN-γ (ELISA), mean” value ([1]; 222-2C5, 48 hours, T-cells + B-LCL 325) was 245 pg/mL. For the same substance, the “IFN-γ (ELISA), mean” value ([1]; 222-2D2, 48 hours, T-cells + B-LCL 68) was 131 pg/mL, the “IFN-γ production in response to GA” value [1] was “reacted” and the “IFN-γ (ELISA), mean” value [1, 8] was >1000 pg/mL. For the same substance, the “IFN-γ (ELISA), mean” value [1, 9] was >1000 pg/mL, the “IFN-γ (ELISA), mean” value [1, 10] was >1000 pg/mL and the “IFN-γ (ELISA), mean” value ([1]; 222-2G4, 48 hours, T-cells + B-LCL 280) was 438 pg/mL. For the same substance, the “IFN-γ (ELISA), mean” value [1, 11] was >1000 pg/mL, the IFN-γ ([2]; T-cell line 165-B5G) was 201 pg/mL and the IL-4 ([2]; T-cell line 165-B5G) was 47 pg/mL. The IL-5 ([2]; T-cell line 165-B5G) was 399 pg/mL, the IL-13 ([2]; T-cell line 165-B5G) was 2930 pg/mL and the IL-22 ([2]; T-cell line 165-B5G) was 248 pg/mL. The IFN-γ ([2]; T-cell line 165-D8G) was 121 pg/mL, the IL-4 ([2]; T-cell line 165-D8G) was 12 pg/mL and the IL-5 ([2]; T-cell line 165-D8G) was 309 pg/mL. It also gave an IL-13 ([2]; T-cell line 165-D8G) of 3326 pg/mL, an IL-22 ([2]; T-cell line 165-D8G) of 405 pg/mL and an IFN-γ ([2]; T-cell line 165-E9G) of 837 pg/mL. The IL-4 ([2]; T-cell line 165-E9G) was 6 pg/mL, the IL-5 ([2]; T-cell line 165-E9G) was 236 pg/mL and the IL-13 ([2]; T-cell line 165-E9G) was 1499 pg/mL. The IL-22 ([2]; T-cell line 165-E9G) was 245 pg/mL, the IFN-γ ([2]; T-cell line 165-F8G) was 889 pg/mL and the IL-4 ([2]; T-cell line 165-F8G) was 5 pg/mL. The IL-5 ([2]; T-cell line 165-F8G) was 370 pg/mL, the IL-13 ([2]; T-cell line 165-F8G) was 1193 pg/mL and the IL-22 ([2]; T-cell line 165-F8G) was 197 pg/mL. For the same substance, the IFN-γ ([2]; T-cell line 165-F10G) was 1108 pg/mL, the IL-4 ([2]; T-cell line 165-F10G) was 114 pg/mL and the IL-5 ([2]; T-cell line 165-F10G) was 2589 pg/mL. The IL-13 ([2]; T-cell line 165-F10G) was 10897 pg/mL, the IL-22 ([2]; T-cell line 165-F10G) was 680 pg/mL and the IFN-γ ([2]; T-cell line 165-H11G) was 724 pg/mL. It also gave an IL-4 ([2]; T-cell line 165-H11G) of 7 pg/mL, an IL-5 ([2]; T-cell line 165-H11G) of 320 pg/mL and an IL-13 ([2]; T-cell line 165-H11G) of 1058 pg/mL. For the same substance, the IL-22 ([2]; T-cell line 165-H11G) was 201 pg/mL.
